Columns and labels:
[1] = Visual examination of physical appearance and mixing of drug-loaded silicone polymer matrix test samples; type: physicochemical; details: 15% and 20% Travoprost test samples
From the text: To test the loading capacity of a silicone elastomer polymer matrix for a prostaglandin analogue, polymer matrix with different amounts and types of a prostaglandin analogue were made and the physical and mechanical properties of the resulting polymerized drug-loaded matrix were characterized (Tables 1-3). These polymer matrix test samples were made by mixing together a prostaglandin analogue, a liquid cyclic vinyl siloxane elastomer, a crosslinker, and a catalyst using a high-speed mixer and then heated the capped container at 70° C. for 24 hours to cure the mixture. A filler, such as a fumed silica, was also used to provide sufficient mechanical strength to the polymerized matrix. In addition, an inhibitor was used to slow the crosslinking reaction to a workable rate. The resulting thin-disc-shaped drug-loaded polymer matrix was allowed to cool to room temperature and then placed in 4° C. for 24 hours to increase stiffness of the material. The physical appearance of each drug-loaded polymer matrix test sample was examined visually and its mechanical properties analyzed using a durometer.

[2] = Modified Higuchi plot (2A versus Q^2/T); type: physicochemical
Description: Travoprost and Latanoprost are oily liquids at room temperature whereas Bimatoprost is a solid at room temperature. To determine whether the liquid versus solid phase of these drugs affects their release from the silicone polymer matrix, data was analyzed using an alternative plot based on the Higuchi equation where twice the drug loading value (2A) is plotted on the […] and the average slope of the plot of cumulative drug released squared versus time in hours (Q^2/T) is plotted on the […].

- average slope of cumulative drug released squared versus time in hours (Q^2/T) ([2]; Loading (A %) 1.0): 0.071 ± 0.001
- average slope of cumulative drug released squared versus time in hours (Q^2/T) ([2]; Loading (A %) 2.5): 0.388 ± 0.046
- average slope of cumulative drug released squared versus time in hours (Q^2/T) ([2]; Loading (A %) 5.0): 1.097 ± 0.218
- average slope of cumulative drug released squared versus time in hours (Q^2/T) ([2]; Loading (A %) 10): 15.821 ± 4.141
- relationship of Q^2/T to 2A in modified Higuchi plot ([2]; Table 10, FIG. 12 and FIG. 13): curvilinear relationship
SMILES: CC(C)OC(=O)CCC/C=C\C[C@@H]1[C@@H](/C=C/[C@@H](O)COc2cccc(C(F)(F)F)c2)[C@H](O)C[C@@H]1O [Travoprost]
- physical examination of test samples [1]: exhibited more elasticity but had surfaces with tacky attributes and a consistency that was not fully homogeneous

Source: patent US20210169690A1, “Self-Retaining Implantable Drug Delivery Device” (GoldenBiotech, LLC, priority 2019, published 2021)
